Patent US11759455B2, “Substituted 1H-imidazo[4,5-b]pyridin-2(3H)-ones and their use as GLUN2B receptor modulators” (JANSSEN PHARMACEUTICA NV, priority 2016, dated 2023)

biological target: T1, human GluN1/GluN2B NMDA receptors (Homo sapiens, UniProt Q13224); assay: Cell-based calcium flux (FLIPR) assay on cloned human NR1/NR2B ion channels expressed in mammalian cells (standard and HTS buffer variants); conditions: HTS assay buffer (1.5 mM MgCl2 in dye loading buffer; 150 mM NaCl, 3 mM KCl in assay buffer), human GluN1/GluN2B, read-out: NR2B IC50 (μM) HTS assay;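 also: stable Tet-On inducible cell line, Ca2+ influx triggered by glutamate at about EC40 plus 10 µM glycine, fluorescent dye read-out over 5 min, normalized to control wells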
T1 construct: expressed in transfected cells
T1 sequence (Q13224 27-1484, other chains not shown): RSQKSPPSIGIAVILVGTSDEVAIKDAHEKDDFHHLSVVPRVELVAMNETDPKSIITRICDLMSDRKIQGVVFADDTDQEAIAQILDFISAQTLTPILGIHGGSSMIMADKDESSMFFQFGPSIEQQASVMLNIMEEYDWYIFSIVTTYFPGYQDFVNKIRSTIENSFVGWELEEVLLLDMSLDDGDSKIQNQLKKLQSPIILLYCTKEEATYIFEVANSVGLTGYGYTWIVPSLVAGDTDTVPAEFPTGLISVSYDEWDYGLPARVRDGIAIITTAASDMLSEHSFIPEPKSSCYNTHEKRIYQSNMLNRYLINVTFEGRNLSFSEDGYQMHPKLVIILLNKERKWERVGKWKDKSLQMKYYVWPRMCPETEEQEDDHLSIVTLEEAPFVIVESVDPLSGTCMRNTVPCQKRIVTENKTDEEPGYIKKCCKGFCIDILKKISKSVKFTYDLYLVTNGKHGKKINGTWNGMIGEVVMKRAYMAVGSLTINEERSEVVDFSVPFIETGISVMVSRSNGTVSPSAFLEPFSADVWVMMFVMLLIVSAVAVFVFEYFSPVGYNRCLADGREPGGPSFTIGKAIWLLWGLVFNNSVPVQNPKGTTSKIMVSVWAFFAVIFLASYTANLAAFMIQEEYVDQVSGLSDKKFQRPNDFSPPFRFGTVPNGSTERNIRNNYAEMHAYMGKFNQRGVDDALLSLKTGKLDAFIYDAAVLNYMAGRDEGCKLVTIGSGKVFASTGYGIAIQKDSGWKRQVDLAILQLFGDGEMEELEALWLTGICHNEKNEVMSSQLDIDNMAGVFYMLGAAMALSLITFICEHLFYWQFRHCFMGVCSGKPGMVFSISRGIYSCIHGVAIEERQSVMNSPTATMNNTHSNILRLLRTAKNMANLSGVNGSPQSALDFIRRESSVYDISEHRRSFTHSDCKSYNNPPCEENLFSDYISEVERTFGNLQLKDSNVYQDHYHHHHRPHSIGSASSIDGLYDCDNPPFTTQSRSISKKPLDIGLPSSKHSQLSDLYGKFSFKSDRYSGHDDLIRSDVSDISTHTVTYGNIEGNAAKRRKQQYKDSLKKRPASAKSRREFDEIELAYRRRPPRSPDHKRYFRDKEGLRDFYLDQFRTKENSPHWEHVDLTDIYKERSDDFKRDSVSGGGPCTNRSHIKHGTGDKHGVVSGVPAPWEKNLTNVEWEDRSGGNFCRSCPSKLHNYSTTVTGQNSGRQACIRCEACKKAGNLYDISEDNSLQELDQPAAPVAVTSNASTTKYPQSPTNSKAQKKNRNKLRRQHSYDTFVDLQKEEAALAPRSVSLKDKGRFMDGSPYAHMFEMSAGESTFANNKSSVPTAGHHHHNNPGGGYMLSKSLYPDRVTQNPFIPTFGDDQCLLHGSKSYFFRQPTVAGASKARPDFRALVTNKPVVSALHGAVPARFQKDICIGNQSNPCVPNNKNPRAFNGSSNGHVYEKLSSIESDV

Row | SMILES | IC50 [µM]
1 | COc1cc(F)ccc1-c1cnc2[nH]c(=O)n(CC(N)=O)c2c1 [Example 433, 2-[6-(4-Fluoro-2-methoxy-phenyl)-2-oxo-3H-imidazo[4,5-b]pyridin-1-yl]acetamide] | 0.867
2 | CNC(=O)Cn1c(=O)[nH]c2ncc(-c3ccc(Cl)cc3)cc21 [Example 436, 2-[6-(4-Chlorophenyl)-2-oxo-3H-imidazo[4,5-b]pyridin-1-yl]-N-methyl-acetamide] | 4.7
3 | CNC(=O)Cn1c(=O)[nH]c2ncc(-c3cc(C)cc(C)c3)cc21 [Example 438, 2-[6-(3,5-Dimethylphenyl)-2-oxo-3H-imidazo[4,5-b]pyridin-1-yl]-N-methyl-acetamide] | 0.394
4 | CNC(=O)Cn1c(=O)[nH]c2ncc(-c3ccc(OC)c(C)c3)cc21 [Example 439, 2-[6-(4-Methoxy-3-methyl-phenyl)-2-oxo-3H-imidazo[4,5-b]pyridin-1-yl]-N-methyl-acetamide] | 3.37
5 | CCOc1ccccc1-c1cnc2[nH]c(=O)n(CC(=O)NC)c2c1 [Example 441, 2-[6-(2-Ethoxyphenyl)-2-oxo-3H-imidazo[4,5-b]pyridin-1-yl]-N-methyl-acetamide] | 2.44
6 | COCCNC(=O)Cn1c(=O)[nH]c2ncc(-c3cccc(C(F)(F)F)c3)cc21 [Example 442, N-(2-Methoxyethyl)-2-[2-oxo-6-[3-(trifluoromethyl)phenyl]-3H-imidazo[4,5-b]pyridin-1-yl]acetamide] | 0.197
7 | CCOc1ccc(F)cc1-c1cnc2[nH]c(=O)n(CC(=O)NCCOC)c2c1 [Example 443, 2-[6-(2-Ethoxy-5-fluoro-phenyl)-2-oxo-3H-imidazo[4,5-b]pyridin-1-yl]-N-(2-methoxyethyl)acetamide] | 1.32
8 | COCCNC(=O)Cn1c(=O)[nH]c2ncc(-c3ccc(OC)cc3)cc21 [Example 444, N-(2-Methoxyethyl)-2-[6-(4-methoxyphenyl)-2-oxo-3H-imidazo[4,5-b]pyridin-1-yl]acetamide] | 0.747
9 | COCCNC(=O)Cn1c(=O)[nH]c2ncc(-c3cccnc3)cc21 [Example 445, N-(2-Methoxyethyl)-2-[2-oxo-6-(3-pyridyl)-3H-imidazo[4,5-b]pyridin-1-yl]acetamide] | > 29
10 | CCOc1cccc(-c2cnc3[nH]c(=O)n(CC(=O)NC4CC4)c3c2)c1 [Example 449, N-Cyclopropyl-2-[6-(3-ethoxyphenyl)-2-oxo-3H-imidazo[4,5-b]pyridin-1-yl]acetamide] | 0.638
11 | COc1cccc(-c2cnc3[nH]c(=O)n(CC(=O)NC4CC4)c3c2)c1 [Example 450, N-Cyclopropyl-2-[6-(3-methoxyphenyl)-2-oxo-3H-imidazo[4,5-b]pyridin-1-yl]acetamide] | 1.76
12 | COc1ccc(-c2cnc3[nH]c(=O)n(CC(=O)NC4CC4)c3c2)cc1C [Example 451, N-Cyclopropyl-2-[6-(4-methoxy-3-methyl-phenyl)-2-oxo-3H-imidazo[4,5-b]pyridin-1-yl]acetamide] | 1.03
13 | COc1cc(F)ccc1-c1cnc2[nH]c(=O)n(CC(=O)NC3CC3)c2c1 [Example 452, N-Cyclopropyl-2-[6-(4-fluoro-2-methoxy-phenyl)-2-oxo-3H-imidazo[4,5-b]pyridin-1-yl]acetamide] | 0.071
14 | O=C(Cn1c(=O)[nH]c2ncc(-c3ccc(Cl)cc3)cc21)NC1CC1 [Example 453, 2-[6-(4-Chlorophenyl)-2-oxo-3H-imidazo[4,5-b]pyridin-1-yl]-N-cyclopropyl-acetamide] | 0.1
15 | COc1ccc(-c2cnc3[nH]c(=O)n(CC(=O)NC4CC4)c3c2)c(OC)c1 [Example 454, N-Cyclopropyl-2-[6-(2,4-dimethoxyphenyl)-2-oxo-3H-imidazo[4,5-b]pyridin-1-yl]acetamide] | 1.94
16 | O=C(Cn1c(=O)[nH]c2ncc(-c3ccc(Cl)cc3)cc21)c1cccs1 [Example 459, 6-(4-Chlorophenyl)-1-[2-oxo-2-(2-thienyl)ethyl]-3H-imidazo[4,5-b]pyridin-2-one] | 1.42

same assay, conditions: standard assay buffer (0.5 mM MgCl2 in dye loading buffer; 137 mM NaCl, 4 mM KCl in assay buffer), human GluN1/GluN2B, read-out: NR2B IC50 (μM) standard assay

Row | SMILES | IC50 [µM]
17 | CN(C)C(=O)Cn1c(=O)n(C)c2ncc(-c3cc(F)c(F)c(C(F)(F)F)c3)cc21 [Example 431, 2-[6-[3,4-Difluoro-5-(trifluoromethyl)phenyl]-3-methyl-2-oxo-imidazo[4,5-b]pyridin-1-yl]-N,N-dimethyl-acetamide] | 0.095
18 | NC(=O)Cn1c(=O)[nH]c2ncc(-c3cccc(C(F)(F)F)c3)cc21 [Example 432, 2-[2-Oxo-6-[3-(trifluoromethyl)phenyl]-3H-imidazo[4,5-b]pyridin-1-yl]acetamide] | 0.962
19 | NC(=O)Cn1c(=O)[nH]c2ncc(-c3ccc(F)c(Cl)c3)cc21 [Example 434, 2-[6-(3-Chloro-4-fluoro-phenyl)-2-oxo-3H-imidazo[4,5-b]pyridin-1-yl]acetamide] | 0.583
20 | CNC(=O)Cn1c(=O)[nH]c2ncc(-c3cccc(C(F)(F)F)c3)cc21 [Example 435, N-Methyl-2-[2-oxo-6-[3-(trifluoromethyl)phenyl]-3H-imidazo[4,5-b]pyridin-1-yl]acetamide] | 0.264
21 | CNC(=O)Cn1c(=O)[nH]c2ncc(-c3ccc(F)cc3C)cc21 [Example 437, 2-[6-(4-Fluoro-2-methyl-phenyl)-2-oxo-3H-imidazo[4,5-b]pyridin-1-yl]-N-methyl-acetamide] | 0.219
22 | CNC(=O)Cn1c(=O)[nH]c2ncc(-c3ccc(F)cc3OC)cc21 [Example 440, 2-[6-(4-Fluoro-2-methoxy-phenyl)-2-oxo-3H-imidazo[4,5-b]pyridin-1-yl]-N-methyl-acetamide] | 0.358
23 | COCCNC(=O)Cn1c(=O)[nH]c2ncc(-c3ccc(F)cc3OC)cc21 [Example 446, 2-[6-(4-Fluoro-2-methoxy-phenyl)-2-oxo-3H-imidazo[4,5-b]pyridin-1-yl]-N-(2-methoxyethyl)acetamide] | 0.204
24 | O=C(Cn1c(=O)[nH]c2ncc(-c3cc(F)cc(F)c3)cc21)NC1CC1 [Example 447, N-Cyclopropyl-2-[6-(3,5-difluorophenyl)-2-oxo-3H-imidazo[4,5-b]pyridin-1-yl]acetamide] | 0.184
25 | O=C(Cn1c(=O)[nH]c2ncc(-c3ccc(F)c(Cl)c3)cc21)NC1CC1 [Example 448, 2-[6-(3-Chloro-4-fluoro-phenyl)-2-oxo-3H-imidazo[4,5-b]pyridin-1-yl]-N-cyclopropyl-acetamide] | 0.008
26 | COc1cccc(F)c1-c1cnc2[nH]c(=O)n(CC(=O)NC3CC3)c2c1 [Example 455, N-Cyclopropyl-2-[6-(2-fluoro-6-methoxy-phenyl)-2-oxo-3H-imidazo[4,5-b]pyridin-1-yl]acetamide] | 0.416
27 | CCOc1ccccc1-c1cnc2[nH]c(=O)n(CC(=O)NC3CC3)c2c1 [Example 456, N-Cyclopropyl-2-[6-(2-ethoxyphenyl)-2-oxo-3H-imidazo[4,5-1D]pyridin-1-yl]acetamide] | 0.146
28 | COc1ccc(-c2cnc3[nH]c(=O)n(CC(=O)c4cccs4)c3c2)cc1F [Example 457, 6-(3-Fluoro-4-methoxy-phenyl)-1-[2-oxo-2-(2-thienyl)ethyl]-3H-imidazo[4,5-b]pyridin-2-one] | 0.33
29 | CCOc1ccccc1-c1cnc2[nH]c(=O)n(CC(=O)c3cccs3)c2c1 [Example 458, 6-(2-Ethoxyphenyl)-1-[2-oxo-2-(2-thienyl)ethyl]-3H-imidazo[4,5-b]pyridin-2-one] | 0.135
